From ChEMBL document CHEMBL3822432, “Antibacterial and anticancer activity of a series of novel peptides incorporating cyclic tetra-substituted C(α) amino acids” (Bioorg Med Chem, 2016)
Values after ≈ are worked out from the molar mass of the structure shown. Non-standard residues stand in square brackets, D forms with d. Residues, ends and D or L forms follow the SMILES beside them. ξ: configuration not given here. Ac6c = NC1(C(=O)O)CCCCC1; ξOrn = NCCCC(N)C(=O)O; ξDab = NCCC(N)C(=O)O

Legend:
RL = assay: Antiproliferative activity against human RL cells after 72 hrs by Celltiter-Glo luminescent cell viability assay; assay type: functional, cell-based
[1] = Antiproliferative activity against human IGROV1 cells after 72 hrs by Celltiter-Glo luminescent cell viability assay; assay type: functional, cell-based; conditions: IGROV-1, 72 h
A549 = assay: Antiproliferative activity against human A549 cells after 72 hrs by Celltiter-Glo luminescent cell viability assay; assay type: functional, cell-based; conditions: A549, 72 h
Pseudomonas aeruginosa = assay: Antibacterial activity against Pseudomonas aeruginosa Boston 41501 ATCC 27853 by two fold serial dilution method; assay type: functional
Neisseria gonorrhoeae = assay: Antibacterial activity against Neisseria gonorrhoeae F-18 ATCC 49226 by two fold serial dilution method; assay type: functional
A498 = assay: Antiproliferative activity against human A498 cells after 72 hrs by Celltiter-Glo luminescent cell viability assay; assay type: functional, cell-based; conditions: A498, 72 h
CFPAC-1 = assay: Antiproliferative activity against human CFPAC-1 cells after 72 hrs by Celltiter-Glo luminescent cell viability assay; assay type: functional, cell-based; conditions: CFPAC-1, 72 h
[2] = test system: Mycobacterium tuberculosis; assay: Antibacterial activity against Mycobacterium tuberculosis H37Ra ATCC 2517 by two fold serial dilution method; assay type: functional
[3] = Antiproliferative activity against human MIAPaCa2 cells after 72 hrs by Celltiter-Glo luminescent cell viability assay; assay type: functional, cell-based; conditions: MIA PaCa-2, 72 h
[4] = Antibacterial activity against Salmonella enterica LT2 Typhimurium ATCC 15277 by two fold serial dilution method; assay type: functional
[5] = Antibacterial activity against carbapenem-resistant Klebsiella pneumoniae K6 ATCC 700603 by two fold serial dilution method; assay type: functional, Klebsiella pneumoniae 700603
[6] = Antiproliferative activity against human UACC62 cells after 72 hrs by Celltiter-Glo luminescent cell viability assay; assay type: functional, cell-based; conditions: UACC-62, 72 h
Streptococcus pneumoniae = assay: Antibacterial activity against Streptococcus pneumoniae 262 ATCC 49619 by two fold serial dilution method; assay type: functional
Staphylococcus aureus [7] = assay: Antibacterial activity against Staphylococcus aureus Seattle 1945 ATCC 25923 by two fold serial dilution method; assay type: functional
Klebsiella aerogenes = assay: Antibacterial activity against carbapenem-resistant Enterobacter aerogenes NCDC819-56 ATCC 13048 by two fold serial dilution method; assay type: functional
[8] = test system: Burkholderia pseudomallei; assay: Antibacterial activity against Burkholderia pseudomallei AHS 1 NCTC 8016 by two fold serial dilution method; assay type: functional
[9] = Antiproliferative activity against human PC3 cells after 72 hrs by Celltiter-Glo luminescent cell viability assay; assay type: functional, cell-based; conditions: PC-3, 72 h
NCI-H69 = assay: Antiproliferative activity against human NCI-H69 cells after 72 hrs by Celltiter-Glo luminescent cell viability assay; assay type: functional, cell-based; conditions: NCI-H69, 72 h
MCF7 = assay: Antiproliferative activity against human MCF7 cells after 72 hrs by Celltiter-Glo luminescent cell viability assay; assay type: functional, cell-based; conditions: MCF7, 72 h
[10] = Antibacterial activity against Clostridium difficile VIP 10463 ATCC 43255 by two fold serial dilution method; assay type: functional, Clostridium difficile ATCC 43255; conditions: Clostridioides difficile
[11] = Antiproliferative activity against human DLD1 cells after 72 hrs by Celltiter-Glo luminescent cell viability assay; assay type: functional, cell-based; conditions: DLD-1, 72 h
Acinetobacter baumannii = assay: Antibacterial activity against Acinetobacter baumannii B5W71 ATCC 15149 by two fold serial dilution method; assay type: functional
[12] = Antibacterial activity against Francisella tularensis SCHU S4 NR-643 by two fold serial dilution method; assay type: functional
[13] = Antibacterial activity against Bacillus anthracis Ames NR-3838 by two fold serial dilution method; assay type: functional, Bacillus anthracis str. Ames
[14] = Antiproliferative activity against human COLO205 cells after 72 hrs by Celltiter-Glo luminescent cell viability assay; assay type: functional, cell-based; conditions: COLO 205, 72 h
[15] = Antibacterial activity against Yersinia pestis CO92 NR641 by two fold serial dilution method; assay type: functional
Staphylococcus aureus [16] = assay: Antibacterial activity against methicillin-resistant Staphylococcus aureus USA 300 NRS 384 by two fold serial dilution method; assay type: functional
Enterococcus faecalis = assay: Antibacterial activity against Enterococcus faecalis Portland ATCC 29212 by two fold serial dilution method; assay type: functional; conditions: ATCC 29212 Portland

Compound | IC50 (RL) | IC50 [1] | IC50 (A549) | MIC (Pseudomonas aeruginosa) | MIC (Neisseria gonorrhoeae) | IC50 (A498) | IC50 (CFPAC-1) | MIC [2] | IC50 [3] | MIC [4] | MIC [5] | IC50 [6] | MIC (Streptococcus pneumoniae) | MIC (Staphylococcus aureus [7]) | MIC (Klebsiella aerogenes) | MIC [8] | IC50 [9] | IC50 (NCI-H69) | IC50 (MCF7) | MIC [10] | other results
CC(=O)NCC(=O)N[C@@H](Cc1ccccc1)C(=O)NC1(C(=O)NCC(=O)NC2(C(=O)NC(CCN)C(=O)NC3(C(=O)NCC(=O)NC4(C(=O)N[C@@H](Cc5ccccc5)C(=O)NC5(C(=O)NCC(=O)NC6(C(=O)NCC(=O)NC(CCN)C(=O)NC7(C(=O)NC(CCN)C(=O)NC(CCN)C(=O)NC(CCN)C(=O)NC(CCN)C(N)=O)CCCCC7)CCCCC6)CCCCC5)CCCCC4)CCCCC3)CCCCC2)CCCCC1 (some centres undefined) (Ac-GF[Ac6c]G[Ac6c][ξDab][Ac6c]G[Ac6c]F[Ac6c]G[Ac6c]G[ξDab][Ac6c][ξDab][ξDab][ξDab][ξDab]-NH2) | 1.7 µM | 2.3 µM | 2.4 µM | 1.48 µM (≈ 3.13 µg/mL) | 1.48 µM (≈ 3.13 µg/mL) | 2.1 µM | 2.7 µM | 11.8 µM (≈ 25 µg/mL) | 4.4 µM | 1.48 µM (≈ 3.13 µg/mL) | 2.96 µM (≈ 6.26 µg/mL) | 1.9 µM | 47.3 µM (≈ 100 µg/mL) | 2.96 µM (≈ 6.26 µg/mL) | 2.97 µM (≈ 6.28 µg/mL) | > 47 µM | 6.5 µM | 1.5 µM | 3 µM | 2.96 µM (≈ 6.26 µg/mL) | IC50 [11]: 2.6 µM; MIC (Acinetobacter baumannii): 1.48 µM (≈ 3.13 µg/mL); MIC [12]: 23.6 µM (≈ 50 µg/mL); MIC [13]: 2.96 µM (≈ 6.26 µg/mL); IC50 [14]: 6.4 µM; MIC [15]: > 47 µM; MIC (Staphylococcus aureus [16]): 5.91 µM (≈ 12.5 µg/mL); MIC (Enterococcus faecalis): 2.96 µM (≈ 6.26 µg/mL)
CC(=O)NCC(=O)N[C@@H](Cc1ccccc1)C(=O)NC1(C(=O)NCC(=O)NC2(C(=O)NC(CCCN)C(=O)NC3(C(=O)NCC(=O)NC4(C(=O)N[C@@H](Cc5ccccc5)C(=O)NC5(C(=O)NCC(=O)NC6(C(=O)NCC(=O)NC(CCCN)C(=O)NC7(C(=O)NC(CCCN)C(=O)NC(CCCN)C(=O)NC(CCCN)C(=O)NC(CCCN)C(N)=O)CCCCC7)CCCCC6)CCCCC5)CCCCC4)CCCCC3)CCCCC2)CCCCC1 (some centres undefined) (Ac-GF[Ac6c]G[Ac6c][ξOrn][Ac6c]G[Ac6c]F[Ac6c]G[Ac6c]G[ξOrn][Ac6c][ξOrn][ξOrn][ξOrn][ξOrn]-NH2) | 2.5 µM | 5.4 µM | 6.5 µM | 1.42 µM (≈ 3.12 µg/mL) | 2.84 µM (≈ 6.25 µg/mL) | 4.7 µM | 5.9 µM | 11.4 µM (≈ 25 µg/mL) | 3.6 µM | 2.84 µM (≈ 6.25 µg/mL) | 22.8 µM (≈ 50 µg/mL) | 3.1 µM | 45.5 µM (≈ 100 µg/mL) | 5.67 µM (≈ 12.5 µg/mL) | 22.8 µM (≈ 50 µg/mL) | > 45 µM | 7.5 µM | 1.7 µM | 4.6 µM | 5.67 µM (≈ 12.5 µg/mL) | IC50 [11]: 6.2 µM; MIC (Acinetobacter baumannii): 2.84 µM (≈ 6.25 µg/mL); MIC [12]: 45.5 µM (≈ 100 µg/mL); MIC [13]: 2.84 µM (≈ 6.25 µg/mL); IC50 [14]: 3.2 µM; MIC [15]: > 45 µM; MIC (Staphylococcus aureus [16]): 22.8 µM (≈ 50 µg/mL); MIC (Enterococcus faecalis): 11.4 µM (≈ 25 µg/mL)
CC(=O)N[C@@H](CCCCN)C(=O)N[C@@H](CCCCN)C(=O)N[C@@H](CCCCN)C(=O)N[C@@H](CCCCN)C(=O)NCC(=O)N[C@@H](Cc1ccccc1)C(=O)NC1(C(=O)NCC(=O)NC2(C(=O)N[C@@H](CCCCN)C(=O)NC3(C(=O)NCC(=O)NC4(C(=O)N[C@@H](Cc5ccccc5)C(=O)NC5(C(=O)NCC(=O)NC6(C(=O)NCC(=O)N[C@@H](CCCCN)C(=O)NC7(C(N)=O)CCCCC7)CCCCC6)CCCCC5)CCCCC4)CCCCC3)CCCCC2)CCCCC1 (Ac-KKKKGF[Ac6c]G[Ac6c]K[Ac6c]G[Ac6c]F[Ac6c]G[Ac6c]GK[Ac6c]-NH2) | 3.7 µM | > 7.5 µM | 7.2 µM | 1.37 µM (≈ 3.13 µg/mL) | 2.73 µM (≈ 6.24 µg/mL) | 4.2 µM | > 7.5 µM | 21.9 µM (≈ 49.9 µg/mL) | > 7.5 µM | 5.47 µM (≈ 12.5 µg/mL) | 43.8 µM (≈ 99.9 µg/mL) | 6.4 µM | 21.9 µM (≈ 49.9 µg/mL) | 10.9 µM (≈ 25 µg/mL) | 43.8 µM (≈ 99.9 µg/mL) | > 44 µM | > 7.5 µM | 2.2 µM | 7.3 µM | 1.37 µM (≈ 3.13 µg/mL) | IC50 [11]: > 7.5 µM; MIC (Acinetobacter baumannii): 2.73 µM (≈ 6.24 µg/mL); MIC [12]: 21.9 µM (≈ 49.9 µg/mL); MIC [13]: 1.37 µM (≈ 3.13 µg/mL); IC50 [14]: 6.7 µM; MIC [15]: > 44 µM; MIC (Staphylococcus aureus [16]): 43.8 µM (≈ 99.9 µg/mL); MIC (Enterococcus faecalis): 21.9 µM (≈ 49.9 µg/mL)
